One experiment relates to Human ES cell line KhES3. Put plainly: Differentiation of human ES cell line KhES3 into insulin producing cells, flow cytometry. To be noted: step 3 with 4 factors plus 0.001-20 mM sodium cromoglicate, 12 days. It counts as cell-based. From the text: Human ES cell line KhES3 was obtained from Kyoto University and maintained in the manner as shown in H. Suemori et al. (2006), Biochem. Biophys. Res. Commun., 345:926-932, the contents of this document is herein incorporated by reference. The cells of KhES3 were differentiated into insulin producing cells according to the steps shown below. The colonies of the human ES cell line grown to approximately 70% confluent in the culture plate were dissociated from the plate by using CTK solution (Reprocell). The dissociated colonies were then divided into single cells using Accutase™ and seeded in 24 well plates (Greiner) at 2.0×10^5/well. The cells were cultured in RPMI medium containing 2% FBS added with activin A (100 ng/ml) and CHIR99021 (3 μM) for 5 days. During this period, the medium was changed with the same fresh medium on the third and the fourth days. The cells obtained in Step 1 were cultured in improved MEM Zinc Option medium containing 1% B-27 (Invitrogen Corp.) comprising dorsomorphin (1 μM), retinoic acid (2 μM), and SB431542 (10 μM) for 6 days. During this period, the medium was changed with the same fresh medium every two days. […] The obtained cells were treated by using BD Cytofix/Cytoperm™ Kit and then, stained with polyclonal guinea-pig anti Swine insulin antibody/anti-serum (DAKO) and analyzed using flow cytometry to determine the number of insulin producing cells.
Background: A flow cytometer gives signals particle by particle.

The test system of experiment [1] is Pancreatic anlages from mice embryos E12.5, E14.5 and E16.5. Briefly: Differentiation of fetal pancreatic anlages into insulin producing cells (insulin promoter GFP). The experiment is classed as cell-based. Particulars: 10 mM with 4 factors. How it is done:
Pancreatic anlages were obtained from mice embryos E12.5, E14.5 and E16.5 that express GFP on the downstream of the insulin promoter. Each pancreatic anlage was cultured in a suspension culture in Improved MEM Zinc Option medium containing 1% B-27 added with forskolin (10 μM), nicotinamide (10 mM), dexamethasone (10 μM), ALK5 inhibitor II (5 μM) and sodium cromoglicate (10 mM) for 4 days.
Further, expression of insulin and Neurog 3 in thus obtained cells were analyzed by PCR and confirmed that the expression of those genes was increased in the cells cultured with sodium cromoglicate (FIG. 7C).

For experiment [2], the system named is iPS cell lines 418C1, 409B2 and 201B7. Put plainly: Differentiation of three iPS cell lines into insulin positive cells. To be noted: 10 mM in step 3 vs control; all three iPS cell lines; FIG. 2A. It counts as cell-based, human. From the text: Three iPS cell lines, 418C1 and 409B2 (Okita K, et al, Nat Methods. 2011 8:409-412) and 201B7, all of which were generated from fibroblast cells, can be obtained from Center for iPS Cell Research and Application, Kyoto University. The iPS cell lines obtained from Kyoto University were differentiated into insulin positive cells by subjecting the cells to the same steps as those in Examples 1 and 2 with the exception that the concentration of sodium cromoglicate in the culture medium used in step 3 was 10 mM.

Experiment [3] concerns Human iPS cell line 201B7. Briefly: Differentiation of 201B7 with sodium cromoglicate used solely or with single additives in step 3. It counts as cell-based. Here is the method:
Human iPS cell line 201B7 was used. The cells were differentiated into insulin producing cells by the following steps. The colonies of the iPS cell line was grown to approximately 80-90% confluence in the culture plate and dissociated from the plate by using CTK solution (Reprocell). The dissociated colonies were then divided into single cells using Accutase™ and seeded in 24 well plates (Greiner) at 2.0×10^5/well. The cells were cultured in RPMI medium containing 1% B-27 added with activin A (100 ng/ml), CHIR99021 (1 μM) and Y-27632 (10 μM) for 2 days. Then, the cells were further cultured in RPMI medium containing 1% B-27 added with activin A (100 ng/ml) and CHIR99021 (1 μM) for more 3 days (Day 5). During this period, the medium was changed with the same fresh medium on the third (Day 3) and the fourth days (Day 4). The cells obtained in Step 1 were cultured in improved MEM Zinc Option medium containing 1% B-27 added with dorsomorphin (1 μM), retinoic acid (2 μM), and SB431542 (10 μM) for 6 days (Day 11). During this period, the medium was changed with the same fresh medium every two days. The cells obtained in Step 2 were cultured in improved MEM Zinc Option medium containing 1% B-27 added with sodium cromoglicate (10 mM) for more 8 days (Day 19). During this period, the medium was changed with the same fresh medium every four days. The ratio of insulin expression versus β-Actin expression was determined by using quantitative PCR. […] Then, the effect of sodium cromoglicate when used in combination with each of the four additives used in EXAMPLE 4: forskolin (10 μM), nicotinamide (10 mM), dexamethasone (10 μM), and ALK5 inhibitor II (5 μM) was determined.

Where a name gives a salt, the structure may show the parent alone.

On to `O=C(O)c1cc(=O)c2c(OCC(O)COc3cccc4oc(C(=O)O)cc(=O)c34)cccc2o1` [sodium cromoglicate, sodium salt of 1,3-Bis(2-carboxychromon-5-yloxy)-2-hydroxypropane], for which the “ratio of insulin positive cells” value with Human ES cell line KhES3 is given as “increased the ratio of insulin positive cells in a concentration dependent manner”. Moreover, the “ratio of GFP positive cells” value in experiment [1] (suspension culture 4 days, E12.5, E14.5, E16.5, FIG. 7B) is “increased the ratio of GFP positive cells in each embryonic pancreatic anlage”. In experiment [1] (PCR, 4 days, FIG. 7C), the “expression of Neurog 3” value is “increased” and the expression of insulin entry is “increased”. In experiment [2], the “ratio of insulin positive cells” value was “ratio of insulin positive cells were increased”. In addition, in experiment [3] (combined with forskolin (10 μM), nicotinamide (10 mM), dexamethasone (10 μM) or ALK5 inhibitor II (5 μM)), the “expression of insulin in combination with each single additive” value was “confirmed in all 4 combinations, although the amount of the expression was not so high”. Further, the “effect on the agents' induction of insulin producing cells in combination” value in experiment [3] (combined with forskolin, nicotinamide, dexamethasone or ALK5 inhibitor II) is reported as “enhances the effects of all 4 agents”. Also, the “amount of insulin positive cells” value in experiment [3] (immune staining, 10 mM alone in step 3, 8 days, FIG. 8C) was “higher”. For the same compound, the “ratio of insulin expression versus β-Actin expression, presence vs absence” value in experiment [3] (quantitative PCR, 10 mM alone in step 3, 8 days, FIG. 8B) is recorded as “higher”.
